From patent publication US11472816B2, “Mcl-1 inhibitors and methods of use thereof” (AstraZeneca AB, priority 2016, dated 2022) come the findings set out here.

One test concerns NCI-H929 tumor. The experiment in a line: In vivo combination efficacy in NCI-H929 human multiple myeloma subcutaneous tumor model. Also noted: species or system C.B-17 SCID female mice. The following applies: either agent alone (Example 2 30 mg/kg every other week; bortezomib 1 mg/kg weekly), NCI-H929 tumor bearing mice. The procedure: (§1) Method: Example 2 was formulated in 30% 2-Hydroxypropyl-beta-cyclodextrin (HPBCD), pH 9 and dosed as intravenously (iv) in a volume of 5 ml/kg. 5×10^6 MOLP-8 tumor cells or 10^7 NCI-H929 tumor cells were injected subcutaneously in the right flank of C.B-17 SCID female mice in a volume of 0.1 mL. Tumor volumes (measured by caliper) were calculated using the formula: length (mm)×width (mm)^2[…]. For efficacy studies, mice were randomized based on tumor volumes and growth inhibition was assessed by comparison of the differences in tumor volume between control and treated groups. Dosing began when mean tumor size reached approximately 160 mm^3 for MOLP-8 and approximately 230 mm^3 for NCI-H929.

Another test concerns MV-4-11 tumor. The experiment in a line: In vivo efficacy in MV-4-11 human acute myeloid leukemia subcutaneous tumor model. On the set-up: species or system C.B-17 SCID female mice. Here is the method:
as §1, with “a single intravenous” for “intravenously”, “(iv) administration” for “(iv)”, “10^6 MV-4-11” for “5×10^6 MOLP-8 tumor cells or 10^7 NCI-H929”, “mL. Tumor volumes (measured by caliper), animal body weight, and tumor conditions were recorded twice weekly for the duration of the study.” for “mL.”, “approximately” for “approximately 160 mm^3 for MOLP-8 and approximately”, “mm^3.” for “mm^3 for NCI-H929.”

Structures are written as SMILES.

For `Cc1c2c(nn1C)CSCc1cc(n(C)n1)CSc1cc(c3ccccc3c1)OCCCc1c(C(=O)O)n(C)c3c-2c(Cl)ccc13` (atropisomer, axis not shown; (Ra)) [Example 2, (Ra)-(+)-17-chloro-5,13,14,22-tetramethyl-28-oxa-2,9-dithia-5,6,12,13,22-pentaazaheptacyclo[27.7.1.1^4,7.0^11,15.0^16,21.0^20,24.0^30,35]octatriaconta-1(37),4(38),6,11,14,16,18,20,23,29,31,33,35-tridecaene-23-carboxylic acid], the “anti-tumor activity, agent alone” value with NCI-H929 tumor is reported as “no significant anti-tumor activity”. For the same molecule, the “mice remaining tumor free” value is 1 of 6 in the test with MV-4-11 tumor (once weekly iv 30 mg/kg, 16 days after initiation of therapy) and 4 of the 6 in the test on MV-4-11 tumor (single iv dose of 100 mg/kg, 16 days after therapy).
As for `CC(C)C[C@H](NC(=O)[C@H](Cc1ccccc1)NC(=O)c1cnccn1)B(O)O` [bortezomib, reference compound], the “anti-tumor activity, agent alone” value in the test on NCI-H929 tumor is on record as “no significant anti-tumor activity”.
